Holding throughout (format): cell-based
The subject of experiment [1] is Wnt activity (Sp5-Luc reporter, SW480 colon carcinoma cells). The experiment is described as follows: Screening assay for Wnt activity: Sp5-Luc reporter gene assay in SW480 cells. The following applies: Homo sapiens, 42 h incubation, luminescence. In short, it runs like this: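 IC50 values come from variable-slope four-parameter fits of luciferase signal normalized to DMSO wells. Stable Sp5-Luc reporter SW480 colon carcinoma cells were exposed to compounds in a 3-fold dilution series (source plates from 10 mM stock) for forty-two hours at 37 °C.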
A general note: A reporter such as luciferase makes a cellular process visible.

The test system of experiment [2] is primary human fibroblasts derived from IPF patients (LL29 cells). The experiment is described as follows: Inhibition of fibrosis: TGF-β1-treated primary human fibroblasts from IPF patients (LL29), αSMA staining. The following applies: Fibroblast, 96 h, TGF-β1 20 ng/mL, 4 days, % αSMA-positive cells. In short, it runs like this: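 […] (0.1% DMSO) on LL29 cells in F12 with 1% FBS, with TGF-β1 (20 ng/mL) added 1 h after plating; 4 days at 37 °C. SYTOX-positive dead cells were excluded and the % αSMA-positive cells was imaged, normalized to TGF-β1/DMSO wells, triplicates; EC50 by non-linear regression.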

Another experiment concerns ARPE-19 cells. Description: Transdifferentiation of ARPE-19 cells into eye neuronal cells (PAX6 staining). The following applies: Homo sapiens, 40 hours, PAX6 antibody staining. Here is the method: The above synthesized compounds were screened using ARPE-19 cells [a spontaneously arising retinal pigment epithelia (RPE) cell line] to determine their ability to transdifferentiate ARPE-19 into eye neuronal cells [photoreceptors].
ARPE-19 cells are cultured in standard culture medium containing Dulbecco's Modified Eagle's Medium and Ham's F12 Nutrient Mixture (DMEM/F12) mix (1:1)+GlutaMax with 1% penicillin-Streptomycin and 10% FBS (Fetal Bovine Serum). Cells are incubated at 37° C. with 5% CO2. Cells are trypsinized and plated onto 384-well pre-spotted plate at a density of 3000 cells/well in 50 uL of media. Plating media:DMEM/F12 (1:1)+3% charcoal filtered-FBS+GlutaMax+1% pen/Strep. Cells are incubated at 37° C. with 5% CO2. At 40 hours, cells were fixed for 15 min with 10% Buffered Formalin. Cells were then washed 3 times with PBS for 5 min each, permeablize using 0.3% Triton X-100 in 1×PBS for 30 min, block for 1 h with 2% BSA in 1×PBS with 0.1% Triton X-100. The primary antibody (1:100 PAX6 Santa Cruz Biotech; sc-81649) was diluted and 10 μL/well was added to the cells. The cells were incubated overnight at 4° C. The plates were washed 3× with PBS before applying the secondary antibody (goat Anti-mouse 488), shake for 1 h in complete darkness, aspirate secondary, add 10 μL of DAPI (diamidino-2-phenylindole) (1 μg/mL), shake for 10 min. Wash 3× in PBS and scan on Thermo Fisher Scientific cell-Insight CX5. Readings were normalized to DMSO only treated cells, and normalized activities were utilized for EC50 calculations using the dose-response log (activator) vs. response-variable slope (four parameters) nonlinear regression feature available in GraphPad Prism 5.0 or 6.0.

The record followed here is patent US10081631B2, “2-(1H-indazol-3-yl)-1H-imidazo[4,5-C]pyridine and therapeutic uses thereof” (Samumed, LLC, priority 2014, dated 2018).

With `COc1cncc(-c2ccc3[nH]nc(-c4nc5c(-c6cccc(F)c6)nccc5[nH]4)c3c2)c1` [Compound 1780, 4-(3-Fluorophenyl)-2-(5-(5-methoxypyridin-3-yl)-1H-indazol-3-yl)-1H-imidazo[4,5-c]pyridine], the concentration for half-maximal inhibition (IC50) (usually the point on the concentration scale where inhibition reaches its midpoint) in experiment [1] turned out to be 0.025 µM. Besides, the EC50 – broadly, the concentration needed to bring the measured effect to its halfway point – in experiment [2] is 0.019 µM.

Compound `Oc1cncc(-c2ccc3[nH]nc(-c4nc5c(-c6cccc(F)c6)nccc5[nH]4)c3c2)c1` [Compound 1781, 5-(3-(4-(3-Fluorophenyl)-1H-imidazo[4,5-c]pyridin-2-yl)-1H-indazol-5-yl)pyridin-3-ol] gave an IC50 in experiment [1] of 0.006 µM. This compound also had an EC50 in experiment [2] of 0.079 µM.

As to `Fc1cccc(-c2nccc3[nH]c(-c4n[nH]c5ccc(-c6ccncc6)cc45)nc23)c1` [Compound 1784, 4-(3-Fluorophenyl)-2-(5-(pyridin-4-yl)-1H-indazol-3-yl)-1H-imidazo[4,5-c]pyridine], the IC50 in experiment [1] is over 10 µM. The compound also displayed an EC50 in experiment [2] of 9.99 µM.

With `Fc1cccc(-c2nccc3[nH]c(-c4n[nH]c5ccc(-c6ccccn6)cc45)nc23)c1` [Compound 1785, 4-(3-Fluorophenyl)-2-(5-(pyridin-2-yl)-1H-indazol-3-yl)-1H-imidazo[4,5-c]pyridine], half-maximal inhibition in experiment [1] (IC50) was put at 0.633 µM. Further, the response in experiment [2] was half-maximal at 0.009 µM (EC50).

On to `Fc1cccc(-c2nccc3[nH]c(-c4n[nH]c5ccc(-c6cnccn6)cc45)nc23)c1` [Compound 1786, 4-(3-Fluorophenyl)-2-(5-(pyrazin-2-yl)-1H-indazol-3-yl)-1H-imidazo[4,5-c]pyridine], for which, in experiment [1], the IC50 stood at 0.035 µM. In experiment [2], the EC50 was 0.009 µM.

`CN1CCN(c2nccc3[nH]c(-c4n[nH]c5ccc(-c6cnn(C)c6)cc45)nc23)CC1` [Compound 1916, 2-(5-(1-Methyl-1H-pyrazol-4-yl)-1H-indazol-3-yl)-4-(4-methylpiperazin-1-yl)-1H-imidazo[4,5-c]pyridine]: the IC50 in experiment [1] stood at 0.065 µM. In addition, the EC50 with ARPE-19 cells was found to be 0.0037 µM.

In the case of `CN(C)CC(=O)Nc1cncc(-c2ccc3[nH]nc(-c4nc5c(-c6cccc(F)c6)nccc5[nH]4)c3c2)c1` [Compound 2251, 2-(Dimethylamino)-N-(5-(3-(4-(3-fluorophenyl)-1H-imidazo[4,5-c]pyridin-2-yl)-1H-indazol-5-yl)pyridin-3-yl)acetamide], in experiment [1], the IC50 came to 0.124 µM. In experiment [2], this compound came in with an EC50 of 0.075 µM.

In experiment [1], `Fc1cncc(-c2ccc3[nH]nc(-c4nc5c(N6CCOCC6)nccc5[nH]4)c3c2)c1` [Compound 2275, 4-(2-(5-(5-Fluoropyridin-3-yl)-1H-indazol-3-yl)-1H-imidazo[4,5-c]pyridin-4-yl)morpholine] showed an IC50 of 0.08 µM. It took 0.0434 µM to reach a half-maximal effect with ARPE-19 cells (EC50).

With `Cn1cc(-c2ccc3[nH]nc(-c4nc5c(N6CCOCC6)nccc5[nH]4)c3c2)cn1` [Compound 2280, 4-(2-(5-(1-Methyl-1H-pyrazol-4-yl)-1H-indazol-3-yl)-1H-imidazo[4,5-c]pyridin-4-yl)morpholine], the midpoint of inhibition in experiment [1], the IC50, lay at 0.015 µM. In the experiment on ARPE-19 cells, this compound came in with a concentration giving a half-maximal response (EC50) of 0.002 µM.

Compound `CN1CCN(c2nccc3[nH]c(-c4n[nH]c5ccc(-c6cnn(C7CC7)c6)cc45)nc23)CC1` [Compound 2284, 2-(5-(1-Cyclopropyl-1H-pyrazol-4-yl)-1H-indazol-3-yl)-4-(4-methylpiperazin-1-yl)-1H-imidazo[4,5-c]pyridine] had an IC50 in experiment [1] of 0.09 µM. The compound further displayed an EC50 in the experiment with ARPE-19 cells of 0.006 µM.
